Results published in US10227329B2, “Compounds useful for treating disorders related to RET” (BLUEPRINT MEDICINES CORPORATION, priority 2016, dated 2019).

Columns and labels:
wild type RET = wild type RET (Homo sapiens (Human), UniProt P07949); assay: RET Wild Type Assay at KM (Caliper electrophoretic mobility shift); format: biochemical; details: 25 μM ATP (KM)
RET V804L = RET V804L (Homo sapiens (Human), UniProt P07949, V804L); assay: RET V804L Gatekeeper Mutant Assay at KM (Caliper electrophoretic mobility shift); format: biochemical; details: 10 μM ATP (KM), read-out: V480L Mutant
Chain of RET V804L (P07949 29-1114 V804L): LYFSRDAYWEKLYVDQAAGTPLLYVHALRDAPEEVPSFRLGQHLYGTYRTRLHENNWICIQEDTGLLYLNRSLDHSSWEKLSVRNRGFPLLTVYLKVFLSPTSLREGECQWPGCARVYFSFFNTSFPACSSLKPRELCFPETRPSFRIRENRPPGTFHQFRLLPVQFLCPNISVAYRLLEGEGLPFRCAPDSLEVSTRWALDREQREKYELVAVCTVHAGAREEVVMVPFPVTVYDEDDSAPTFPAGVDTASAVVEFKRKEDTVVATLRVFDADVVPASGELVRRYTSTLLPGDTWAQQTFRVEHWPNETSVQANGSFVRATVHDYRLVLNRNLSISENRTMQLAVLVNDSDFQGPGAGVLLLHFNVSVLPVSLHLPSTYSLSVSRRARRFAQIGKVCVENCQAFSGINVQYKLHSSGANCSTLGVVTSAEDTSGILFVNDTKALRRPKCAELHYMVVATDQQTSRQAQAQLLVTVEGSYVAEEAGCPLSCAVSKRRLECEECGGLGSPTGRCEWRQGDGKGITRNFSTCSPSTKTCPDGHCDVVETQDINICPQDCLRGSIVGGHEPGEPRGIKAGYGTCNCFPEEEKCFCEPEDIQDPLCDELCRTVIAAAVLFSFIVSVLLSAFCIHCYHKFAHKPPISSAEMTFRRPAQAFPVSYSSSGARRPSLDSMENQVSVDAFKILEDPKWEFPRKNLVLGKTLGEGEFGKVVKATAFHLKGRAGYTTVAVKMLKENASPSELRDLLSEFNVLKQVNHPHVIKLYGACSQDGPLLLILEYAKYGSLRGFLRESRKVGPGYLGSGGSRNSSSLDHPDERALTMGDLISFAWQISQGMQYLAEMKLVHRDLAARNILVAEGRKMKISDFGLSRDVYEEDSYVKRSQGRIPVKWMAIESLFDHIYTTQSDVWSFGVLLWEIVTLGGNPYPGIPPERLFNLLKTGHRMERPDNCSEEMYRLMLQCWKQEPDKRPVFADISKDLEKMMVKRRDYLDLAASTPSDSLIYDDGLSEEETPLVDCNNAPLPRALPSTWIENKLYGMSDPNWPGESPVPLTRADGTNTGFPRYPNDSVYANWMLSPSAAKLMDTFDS

Chain of wild type RET (P07949 29-1114): as the sequence (P07949 29-1114 V804L) above, with L776V counted along it

Structure (SMILES)	IC50 (wild type RET)	IC50 (RET V804L)
Cc1cc(Nc2cc(C)[nH]n2)nc(N2C[C@@H](C(=O)N[C@@H](C)c3ccc(-n4cc(F)cn4)nc3)[C@@H]2C)n1 [Compound 143]	< 10 nM	< 10 nM
Cc1cc(Nc2cc(C)[nH]n2)nc(N2C[C@H](C(=O)N[C@@H](C)c3ccc(-n4cc(F)cn4)nc3)[C@H]2C)n1 [Compound 144]	< 10 nM	< 10 nM
Cc1cc(Nc2cc(C)[nH]n2)nc(N2CC(O)(C(=O)N[C@@H](C)c3ccc(-n4cc(F)cn4)nc3)C2)c1 [Compound 145]	< 10 nM	< 10 nM
COC1(C(=O)NCc2ccc(-n3cccn3)nc2)CN(c2nc(Nc3cc(C)[nH]n3)cc(C)c2F)C1 [Compound 146]	< 10 nM	< 10 nM
COC1(C(=O)N[C@@H]2CCN(c3ccccn3)C2)CCN(c2nc(C)cc(Nc3cc(C)[nH]n3)n2)CC1 [Compound 147]	10 to 100 nM	10 to 100 nM
COC1(C(=O)NCc2ccc(-n3cc(F)cn3)nc2)CN(c2nc(C)cc(Nc3cc(C)[nH]n3)n2)C1 [Compound 148]	< 10 nM	< 10 nM
COC1(C(=O)N[C@@H](C)c2ccc(-n3cc(F)cn3)nc2)CN(c2nccc(Nc3cc(C)[nH]n3)n2)C1 [Compound 149]	< 10 nM	< 10 nM
COC1(C(=O)NCc2ccc(-n3cc(F)cn3)nn2)CN(c2nc(C)cc(Nc3cc(C)[nH]n3)n2)C1 [Compound 150]	10 to 100 nM	10 to 100 nM
Cc1cc(Nc2cc(C)[nH]n2)nc(N2CC(F)(C(=O)N[C@@H](C)c3ccc(-n4cc(F)cn4)nc3)C2)c1 [Compound 151]	< 10 nM	< 10 nM
Cc1cc(Nc2cc(C)c(F)c(N3CC(C(=O)N[C@@H](C)c4ccc(-n5cc(F)cn5)nc4)C3)n2)n[nH]1 [Compound 152]	< 10 nM	< 10 nM
Cc1cc(Nc2cc(C)[nH]n2)nc(N2CC(F)(C(=O)N[C@@H](C)c3ccc(-n4cc(F)cn4)nc3)C2)n1 [Compound 153]	< 10 nM	< 10 nM
COC1(C(=O)NCc2ccc(N3CC[C@H](F)C3)nc2)CN(c2nc(C)cc(Nc3cc(C)[nH]n3)n2)C1 [Compound 154]	> 100 nM	> 100 nM
COC1(C(=O)NCc2ccc(N3CC[C@@H](F)C3)nc2)CN(c2nc(C)cc(Nc3cc(C)[nH]n3)n2)C1 [Compound 155]	> 100 nM	10 to 100 nM
COC1(C(=O)NCc2ccc(-n3cccn3)nc2)CN(c2nc(Nc3cc(C)[nH]n3)cc(C)c2C#N)C1 [Compound 156]	< 10 nM	< 10 nM
Cc1cc(Nc2cc(C)c(C#N)c(N3CC(F)(C(=O)N[C@@H](C)c4ccc(-n5cccn5)nc4)C3)n2)n[nH]1 [Compound 157]	< 10 nM	< 10 nM
CCC1(C(=O)NCc2ccc(-n3cccn3)nc2)CCN(c2nc(C)cc(Nc3cc(C)[nH]n3)n2)CC1 [Compound 158]	< 10 nM	< 10 nM
Cc1cc(Nc2cc(C)[nH]n2)nc(N2CC(C#N)(C(=O)N[C@@H](C)c3ccc(-n4cc(F)cn4)nc3)C2)n1 [Compound 159]	< 10 nM	< 10 nM
COC1(C(=O)NCc2ccc(-n3cccn3)nc2)CCN(c2cc(C)cc(Nc3cc(C)[nH]n3)n2)CC1 [Compound 160, N-((6-(1H-pyrazol-1-yl)pyridin-3-yl)methyl)-4-methoxy-1-(4-methyl-6-(3-methyl-1H-pyrazol-5-ylamino)pyridin-2-yl)piperidine-4-carboxamide]	< 10 nM	< 10 nM
COC1(C(=O)NCc2ccc(-n3cccn3)nc2)CCN(c2nc(C)cc(Nc3cc(C)[nH]n3)n2)CC1 [Compound 161, N-((6-(1H-pyrazol-1-yl)pyridin-3-yl)methyl)-4-methoxy-1-(4-methyl-6-((5-methyl-1H-pyrazol-3-yl)amino)pyrimidin-2-yl)piperidine-4-carboxamide]	< 10 nM	< 10 nM
Cc1cc(Nc2cc(C)[nH]n2)nc(N2CCC(O)(C(=O)N(C)Cc3ccc(-n4cccn4)nc3)CC2)n1 [Compound 162]	< 10 nM	< 10 nM
COC1(C(=O)NCc2ccc(-n3nc(C)cc3C)nc2)CN(c2nc(C)cc(Nc3cc(C)[nH]n3)n2)C1 [Compound 163]	10 to 100 nM	10 to 100 nM
Cc1cc(Nc2cc(C)[nH]n2)nc(N2CCC(C(=O)N[C@@H](C)c3ccc(-n4cc(F)cn4)nc3)CC2)c1 [Compound 164]	< 10 nM	< 10 nM
Cc1cc(Nc2cc(C)c(C#N)c(N3CC(F)(C(=O)NCc4ccc(-n5cc(F)cn5)nc4)C3)n2)n[nH]1 [Compound 165]	< 10 nM	< 10 nM
CCC1(C(=O)N[C@@H](C)c2ccc(-n3cc(F)cn3)nc2)CN(c2nc(C)cc(Nc3cc(C)[nH]n3)n2)C1 [Compound 166, (S)-3-ethyl-N-(1-(6-(4-fluoro-1H-pyrazol-1-yl)pyridin-3-yl)ethyl)-1-(4-methyl-6-((5-methyl-1H-pyrazol-3-yl)amino)pyrimidin-2-yl)azetidine-3-carboxamide]	< 10 nM	< 10 nM
COC1(C(=O)N[C@@H](C)c2ccc(-n3cc(F)cn3)nc2)CN(c2cc(C)cc(Nc3cc(C)[nH]n3)n2)C1 [Compound 167]	< 10 nM	< 10 nM
COC1(C(=O)N[C@@H](C)c2ccc(-n3cccn3)nc2)CN(c2nc(Nc3cc(C)[nH]n3)cc(C)c2F)C1 [Compound 168]	< 10 nM	< 10 nM

Structure (SMILES)	IC50 (wild type RET)	IC50 (RET V804L)
COC1(C(=O)N[C@@H](C)c2ccc(-n3cc(F)cn3)nc2)CN(c2nc(C)cc(Nc3cc(C)[nH]n3)n2)C1 [Compound 169]	< 10 nM	< 10 nM
COC1(C(=O)N[C@@H](C)c2ccc(-n3cc(F)cn3)nc2)CN(c2cc(C)nc(Nc3cc(C)[nH]n3)n2)C1 [Compound 170]	< 10 nM	< 10 nM
Cc1cc(Nc2cc(C)c(F)c(N3CC(C(=O)N(C)[C@@H](C)c4ccc(-n5cc(F)cn5)nc4)C3)n2)n[nH]1 [Compound 171]	< 10 nM	< 10 nM
COC1(C(=O)NCc2ccc(-n3cc(Cl)cn3)nc2)CN(c2nc(C)cc(Nc3cc(C)[nH]n3)n2)C1 [Compound 172]	< 10 nM	< 10 nM
COC1(C(=O)NCc2ccc(-n3cccn3)nc2)CN(c2cc(C(F)F)cc(Nc3cc(C)[nH]n3)n2)C1 [Compound 173]	< 10 nM	< 10 nM
COC1(C(=O)NCc2ccc(-n3cc(F)cn3)nc2)CN(c2nc(Nc3cc(C)[nH]n3)cc(C)c2F)C1 [Compound 174]	< 10 nM	< 10 nM
COC1(C(=O)N[C@@H](C)c2ccc(-n3cccn3)nc2)CN(c2nc(Nc3cc(C)[nH]n3)cc(C)c2C#N)C1 [Compound 175]	< 10 nM	< 10 nM
COC1(C(=O)NCc2ccc(N3CCC(F)(F)C3)nc2)CN(c2nc(C)cc(Nc3cc(C)[nH]n3)n2)C1 [Compound 176]	10 to 100 nM	10 to 100 nM
COC1(C(=O)NCc2ccc(-n3ccc(C4CC4)n3)nc2)CN(c2cc(C)cc(Nc3cc(C)[nH]n3)n2)C1 [Compound 177]	< 10 nM	< 10 nM
COC1(C(=O)NCc2ccc(-n3cc(C4CC4)cn3)nc2)CN(c2nc(C)cc(Nc3cc(C)[nH]n3)n2)C1 [Compound 178]	< 10 nM	< 10 nM
COC1(C(=O)NCc2ccc(-n3ccc(C4CC4)n3)nc2)CN(c2nc(C)cc(Nc3cc(C)[nH]n3)n2)C1 [Compound 179]	< 10 nM	< 10 nM
Cc1cc(Nc2cc(C(F)F)cc(N3CC(F)(C(=O)NCc4ccc(-n5cc(F)cn5)nc4)C3)n2)n[nH]1 [Compound 180]	< 10 nM	< 10 nM
COC1(C(=O)N[C@@H](C)c2ccc(-n3cccn3)nc2)CCN(c2cc(C)cc(Nc3cc(C)[nH]n3)n2)CC1 [Compound 181]	< 10 nM	< 10 nM
Cc1cc(Nc2cc(C)[nH]n2)nc(N2CCC(O)(C(=O)NCc3ccc(-n4nc(C)cc4C)nc3)CC2)c1 [Compound 182]	< 10 nM	< 10 nM
Cc1cc(Nc2cc(C(F)F)cc(N3CC(F)(C(=O)NCc4cnc(-n5cc(F)cn5)cn4)C3)n2)n[nH]1 [Compound 183]	< 10 nM	< 10 nM
COC1(C(=O)NCc2ccc(-n3cc(F)cn3)nc2)CN(c2nc(Nc3cc(C)[nH]n3)cc(C)c2C#N)C1 [Compound 184]	< 10 nM	< 10 nM
COC1(C(=O)N(C)Cc2ccc(-n3cccn3)nc2)CCN(c2nc(C)cc(Nc3cc(C)[nH]n3)n2)CC1 [Compound 185]	< 10 nM	< 10 nM
COC1(C(=O)N[C@@H](C)c2ccc(-n3cccn3)nc2)CCN(c2nc(C)cc(Nc3cc(C)[nH]n3)n2)CC1 [Compound 186]	< 10 nM	< 10 nM
Cc1cc(Nc2cc(C)[nH]n2)nc(N2CCC(O)(C(=O)N(C)[C@@H](C)c3ccc(-n4cccn4)nc3)CC2)n1 [Compound 187]	< 10 nM	< 10 nM
Cc1cc(Nc2cc(C)[nH]n2)nc(N2CCC(C)(C(=O)N[C@@H](C)c3ccc(-n4cc(F)cn4)nc3)CC2)c1 [Compound 188]	< 10 nM	< 10 nM
Cc1cc(Nc2cc(C)c(C#N)c(N3CC(F)(C(=O)N[C@@H](C)c4ccc(-n5cc(F)cn5)nc4)C3)n2)n[nH]1 [Compound 189]	< 10 nM	< 10 nM
CCC1(C(=O)NCc2ccc(-n3cc(F)cn3)nc2)CCN(c2nc(C)cc(Nc3cc(C)[nH]n3)n2)CC1 [Compound 190]	< 10 nM	< 10 nM
Cc1cc(Nc2cc(C)[nH]n2)nc(N2CCC(C)(C(=O)N[C@@H](C)c3ccc(-n4cc(F)cn4)nc3)CC2)n1 [Compound 191]	< 10 nM	< 10 nM
Cc1cc(Nc2cc(C)[nH]n2)nc(N2CCC(O)(C(=O)N[C@@H](C)c3ccc(-n4cc(F)cn4)nc3)CC2)c1 [Compound 192]	< 10 nM	< 10 nM
COC1(C(=O)NCc2ccc(-n3cc(F)cn3)nc2)CCN(c2cc(C)cc(Nc3cc(C)[nH]n3)n2)CC1 [Compound 193]	< 10 nM	< 10 nM
